In US12697316B2, “Combination therapy with acetyl-leucine and miglustat” (INTRABIO LTD., priority 2019, dated 2026):

Legend:
Assay type in all cases: in vivo, mouse
Npc1^−/− mice [1] = assay: CatWalk automated gait analysis in Npc1−/− mice; details: for ataxia (lateral displacement from a straight trajectory): 9-week-old Npc1−/− mice treated from 8 weeks of age (1 week), 0.1 g/kg/day in diet; for ataxia (lateral displacement from a straight trajectory) / duty cycle of hind paws / hind paw stand mean: vs untreated Npc1−/−; for magnitude of ataxia: Npc1−/− mice treated from weaning (3 weeks), assessed at 9 weeks (6 weeks of treatment)
Description: BALBc/NPC ^h and Sandhoff mice were bred as heterozygotes to generate affected mice (Npc1^−/−, Hexb^−/−) and controls (Npc^+/+, Hexb^+/+). The mice were housed under non-sterile conditions, with food and water available ad libitum. All experiments were conducted using protocols approved by the UK Home Office Animal Scientific Procedures Act, 1986.
(§1) ADLL and enantiomers (ADLL: Molekula #73891210, ALL: Sigma Aldrich #441511, ADL: Sigma #A0876) were administered as dry admix in powdered mouse diet (PicoLab Rodent Diet 20/5053, LabDiet) at a dose of 0.1 g/kg/day for in vivo studies. Treatment groups for in vivo study consisted of at least 5 mice per group. In vitro studies were conducted with each compound dissolved in PBS to generate a 50 mM stock solution and diluted to a 1 mM working concentration in media (DMEM High Glucose-Gibco #10566016).
Miglustat (Monsanto/Oxford GlycoSciences) was administered as a dry solid mixed with powdered chow (600 mg/kg/day) (see above) alone or in combination with ADLL.
The weight and activity of each mouse was recorded weekly until reaching the humane endpoint (defined as a loss of 1 g body weight within 24 h). Gait analysis was performed using CatWalk 10.5 system (Noldus) according to the manufacturer's instructions and five runs were recorded per animal at each time point. The camera was set to 40 cm below the walkway, the walkway was approximately 4 cm wide, and detection settings set to camera gain 14.05 and green intensity 0.12. Motor function was measured using an accelerating NG Rota Rod for mice (Ugo Basile) starting from 1 rpm to 10 rpm, accelerating every 30 seconds by one rpm. Bar crossing experiments on Sandhoff animals were conducted to measure motor strength and coordination. The apparatus used was modified from published studies. Briefly, a metal bar (1.2 mm width and 26 cm in length) was suspended horizontally between two wooden supports 30 cm high over a cushioned surface and animals were allowed to grasp the center of the bar with forepaws only, the tail was released, and the clock was started. Latency to cross or fall from the bar was scored, with 120 sec, maximum, to termination of each trial. A score was given to each animal between +120 and −120. If crossing time was greater than 0, then score=120−CT; if falling time was greater than 0, the score=FT−120.

Npc1^−/− mice [2] = assay: Accelerating Rotarod motor function in Npc1−/− mice; details: Npc1−/− mice treated from 3 weeks, assessed at 8 weeks, vs untreated Npc1−/−
Description: The weight and activity of each mouse was recorded weekly until reaching the humane endpoint (defined as a loss of 1 g body weight within 24 h). […] Motor function was measured using an accelerating NG Rota Rod for mice (Ugo Basile) starting from 1 rpm to 10 rpm, accelerating every 30 seconds by one rpm.

Npc1^−/− mice [3] = assay: Lipid storage (GSLs, sphingoid bases) in forebrain and cerebellum of Npc1−/− mice; design: concentration or dose not given beside the values; details: Npc1−/− mice treated from 3 weeks, 59 days of age
Description: as §1
Biochemical and immunohistochemical analyses. Mice were saline perfused under terminal anaesthesia. Tissues for biochemical analysis were snap-frozen on ice-cold isopentane. For immunofluorescent staining, tissues were perfused with 4% PFA followed by PBS and kept in 4% PFA for 24h and stored in PBS containing 20% sucrose longer term. Brains were cut parasagitally (20 micron sections) and stored in 30% ethylene glycol, 30% glycerol 0.1 M sodium phosphate buffer (pH 7.4) at −20° C. Biochemical analysis was performed on water-homogenised tissues (50 mg/ml) and protein content was determined using a BCA protein assay (Thermo Fisher #23227) according to the manufacturer's instructions.
Sphingoid Base Measurements: Sphingoid bases (sphingosine and sphinganine) were extracted from 100 uL tissue homogenates in 500 uL of chloroform:methanol (1:2v/v) followed by sonication for 10 minutes at room temperature. Subsequently, 1 M 500-uL sodium chloride, 500 uL chloroform, and 3 M 100 uL sodium hydroxide were added to the samples, and vortexed every five minutes for 15 minutes at room temperature. Homogenates were centrifuged (13,000 g for 10 minutes) and the lower organic phase retained. Sphingoid bases were purified from the samples by pre-equilibrating SPA-NH2 columns with 2×1 mL chloroform followed by sample elution with 3×300 ul acetone. The samples were dried under nitrogen. Lipids were resuspended in 50 uL pre-warmed ethanol (37° C.) and 50 uL OPA labelling solution (1 mg OPA/20 uL Ethanol/1 uL 2-mercaptoethanol; dilution 1:2000 in 3% boric acid pH 10.5) was added. Samples were kept at room temperature in the dark for 20 minutes and vortexed every 10 minutes. Samples were buffered with 100 uL methanol: 5 mM Tris pH 7 (9:1) and centrifuged at 5,000 g for 2 minutes. Supernatants (150 uL) were loaded onto a reverse phase HPLC. Chromatography was carried out using a mobile phase of 85% acetonitrile/15% H2O at a flow rate of 1.0 ml/min. The orthophthaldehyde-labelled derivatives were monitored at an excitation wavelength of 340 nm and an emission wavelength of 450 nm. Quantification of trace peak area was carried out using EZChrom Elite software v3.2.1.
Glycosphingolipid measurements: Glycosphingolipids were extracted and measured by NP-HPLC according to published methods. Tissue homogenates in chloroform/methanol (C:M) (1:2 v/v) overnight at 4° C. The mixture was centrifuged (3000 rpm/10 min) and 1 mL chloroform and 1 mL PBS were added to the supernatant and centrifuged (3000 rpm/10 min). The lower phase was dried under N2, resuspended in 50 uL C:M 1:3 v/v and combined with the upper phase. Subsequently, GSLs were recovered using C18 Isolute columns (100 mg) (Biotage) pre-equilibrated with 4×1 mL MeOH and 2×1 mL H2O. Samples were washed 3×1 mL H2O and eluted with 1 mL C:M 98:2, 2×1 mL C:M 1:3, 1 mL MeOH. The column eluate was dried under N2, resuspended in 100 uL C:M 2:1, dried again under N2 and resuspended in ceramide glycanase (CGase) buffer (50 mM sodium acetate pH 5.5, 1 mg/mL sodium taurodeoxycholate). 50 mU CGase was added, and samples incubated at 37° C. overnight. Released oligosaccharides were anthranilic acid (2-AA) labelled and purified by mixing with 1 mL Acetonitrile: H2O 97:3 and added to Discovery DPA-6S columns (SUPELCO, # 52625-U) pre-equilibrated with 1 mL acetonitrile, 2×1 mL H2O, and 2×1 mL acetonitrile. Columns were washed with 2×1 mL Acetonitrile: H2O 95:5 v/v, and eluted in 2×0.75 mL H2O. […]

[4] = Npc1−/− mice treated from 3 weeks, assessed at 8 weeks

Structure (SMILES)	ataxia (lateral displacement from a straight trajectory) (Npc1^−/− mice [1])	duty cycle of hind paws (Npc1^−/− mice [1]; [4])	hind paw stand mean (Npc1^−/− mice [1]; [4])	magnitude of ataxia (Npc1^−/− mice [1])	Rotarod performance (Npc1^−/− mice [2])	reduction of GA2 in cerebellum (Npc1^−/− mice [3])	reduction of sphinganine levels in forebrain (Npc1^−/− mice [3])	motor function assessed using Catwalk (Npc1^−/− mice [1]; [4])	reduction of sphinganine in cerebellum (Npc1^−/− mice [3])	reduction of GA1 in cerebellum (Npc1^−/− mice [3])	reduction of GM1a in forebrain (Npc1^−/− mice [3])	reduction of GM2 in forebrain (Npc1^−/− mice [3])
CC(=O)NC(CC(C)C)C(=O)O (racemic) [ADLL, N-acetyl-DL-leucine]	significantly reduced ataxia	significantly reduced	significantly reduced	significantly reduced	significant improvement	21.3%	13.5%					
CC(=O)N[C@H](CC(C)C)C(=O)O [ADL, N-acetyl-D-leucine]	significantly reduced ataxia			significantly reduced	no significant benefit		18.2%	no significant benefit	42.3%			
CC(=O)N[C@@H](CC(C)C)C(=O)O [ALL, N-acetyl-L-leucine]	significantly reduced ataxia	significantly reduced	significantly reduced	significantly reduced	significant improvement	23.8%				23.5%	20.1%	19.6%
